Test results published in patent US6730792B2, “β3 adrenergic agonists” (Eli Lilly and Company, priority 2000, dated 2004).

Target: T1, human β3 adrenergic receptor (Homo sapiens, UniProt P13945)
T1 construct: expressed in transfected cells; host or cells: DXB-11 Chinese hamster ovary (CHO) cell line, stably transfected (phd expression vector)
Experiment: whole cell receptor coupled c-AMP assay, human β3 receptor in CHO cells (EC50, Emax relative to isoproterenol)
Assay type: cell-based
Settings: Emax ± standard error of the mean; average of at least 3 runs except where n = 1; compound tested in the isolated form listed
Excerpt: The genes encoding the human β1-adrenergic receptor (Frielle et al., Proc. Natl. Acad. Sci., 84:7920-7924, 1987), the human β2-adrenergic receptor (Kobika et al., Proc. Natl. Acad. Sci., 84:46-50, 1987, Emorine et al., Proc. Natl. Acad. Sci., 84:6995-6999, 1987) and the human β3 adrenergic receptor (Granneman et al., Molecular Pharmacology, 44(2):264-70, 1993) are individually subcloned into a phd expression vector (Grinnell et al., Bio/Technology, 5:1189-1192, 1987) and transfected into the DXB-11 Chinese hamster ovary (CHO) cell line by calcium phosphate precipitation methodology. The stably transfected cells are grown to 95% confluency in 95% Dulbecco's modified Eagles Medium (DMEM), 5% fetal bovine serum and 0.01% proline. Media is removed and the cells are washed with phosphate buffered (pH 7.4) saline (without magnesium and calcium). Cells are then lifted using an enzyme free cell dissociation solution (Specialty Media, Lavallette, N.J.) and pelleted by centrifugation.
Cells from each of the above cell lines are resuspended and added (20,000/well) to a 96-well plate. Cells are incubated at 37° C. with representative compounds of the invention for 20 minutes in buffer (Hank's balanced salt solution, 10 mM HEPES, 0.1% BSA, 1 mM L-ascorbic acid, 0.2% dimethyl sulfoxide, 1 mm 3-isobutyl-1-methylxanthine, pH 7.4). After halting the incubation with quench buffer (50 mM Na Acetate, 0.25% Triton X-100, pH 5.8), the c-AMP level is quantified by scintillation proximity assay (SPA) using a modification of the commercially available c-AMP kit (Amersham, Arlington Heights, Ill.) with rabbit anti-cAMP antibody (ICN Biomedicals, Aurora, Ohio) for the kit.
Sigmoidal dose response curves, from the whole cell receptor coupled c-AMP assay are fit to a four parameter logistic equation using non linear regression: y=(a−d)/(1+(Dose/c)^b)+d where a and d are responses at zero and maximal dose, b is the slope factor and c is the EC50 as previously described (DeLean et al., Am. J. Physiol., 235, E97-E102, 1978). EC50 is assessed as the concentration producing 50% of the maximum response to each agonist.
Isoproterenol is accepted in the art as a non-selective β3 agonist and is widely used as a comparator in evaluating the activity of compounds. See Trends in Pharm. Sci., 15:3, 1994. The % intrinsic activity (Emax) of representative compounds of the invention is assessed relative to isoproterenol by the compound's maximal response divided by the isoproterenol maximal response times 100.

T1 sequence (P13945 whole entry): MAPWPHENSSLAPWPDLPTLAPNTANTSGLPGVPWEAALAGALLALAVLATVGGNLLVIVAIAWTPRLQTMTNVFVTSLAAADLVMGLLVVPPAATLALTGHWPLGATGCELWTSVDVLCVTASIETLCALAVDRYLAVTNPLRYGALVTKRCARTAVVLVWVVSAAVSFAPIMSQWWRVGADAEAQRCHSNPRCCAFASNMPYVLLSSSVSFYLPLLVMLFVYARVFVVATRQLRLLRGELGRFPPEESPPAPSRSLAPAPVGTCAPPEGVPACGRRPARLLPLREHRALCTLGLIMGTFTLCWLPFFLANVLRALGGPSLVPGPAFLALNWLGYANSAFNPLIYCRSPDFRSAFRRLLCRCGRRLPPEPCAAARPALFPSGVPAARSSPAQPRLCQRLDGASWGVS

Row | Structure (SMILES) | Emax (%) ± SEM
1 | CC(C)(Cc1ccc(Oc2ccccn2)cc1)NC[C@H](O)COc1ccccc1-c1cccs1.O=C(O)C(F)(F)F [Example 1] | 58.1 ± 2.6%
2 | CC(C)(Cc1ccc(Oc2ccccn2)cc1)NC[C@H](O)COc1ccccc1-c1ccno1.O=C(O)C(F)(F)F [Example 2] | 43.6 ± 9.7%
3 | Cn1nccc1-c1ccccc1OC[C@@H](O)CNC(C)(C)Cc1ccc(Oc2ccc(C#N)cn2)cc1 [Example 3] | <10%
4 | Cn1ccc(-c2ccccc2OC[C@@H](O)CNC(C)(C)Cc2ccc(Oc3ncccc3C#N)cc2)n1 [Example 4] | 55.0 ± 1.3%
5 | CC(C)(Cc1ccc(Oc2ccc(C#N)cn2)cc1)NC[C@H](O)COc1ccccc1-c1cccs1 [Example 5] | 66.1 ± 4.8%
6 | CC(C)(Cc1ccc(Oc2ccc(C#N)cn2)cc1)NC[C@H](O)COc1ccccc1-c1nccs1 [Example 6] | 58.7 ± 1.8%
7 | CC(C)(Cc1ccc(Oc2ccc(C#N)cn2)cc1)NC[C@H](O)COc1ccccc1-c1ccno1 [Example 7] | 48.8 ± 2.5%
8 | CC(C)(Cc1ccc(Oc2ccc(C#N)cn2)cc1)NC[C@H](O)COc1ccccc1-c1ccn[nH]1 [Example 8] | 33.7 n = 1%
9 | CC(C)(Cc1ccc(Oc2ccc(C#N)cn2)cc1)NC[C@H](O)COc1ccccc1-c1cc2ccccc2[nH]1 [Example 9] | 23.7 ± 10.0%
10 | CC(C)(Cc1ccc(Oc2ccc(C#N)cn2)cc1)NC[C@H](O)COc1ccccc1-c1ccncn1 [Example 10] | 35.1 ± 0.9%
11 | CC(C)(Cc1ccc(Oc2ccc(C#N)cn2)cc1)NC[C@H](O)COc1ccccc1N1CCCC1=O [Example 11] | 18.0 ± 6.5%
12 | CC(C)(Cc1ccc(Oc2ccc(C#N)cn2)cc1)NC[C@H](O)COc1ccccc1-c1ccon1.Cl [Example 12] | 64.8 ± 6.3%
13 | CC(C)(Cc1ccc(Oc2ccc(C#N)cn2)cc1)NC[C@H](O)COc1ccccc1-c1cnco1.Cl [Example 13] | 54.8 ± 1.7%
14 | Cn1nccc1-c1ccccc1OC[C@@H](O)CNC(C)(C)Cc1ccc(Oc2ccc(C(N)=O)cn2)cc1 [Example 14] | 16.9 n = 1%
15 | Cn1ccc(-c2ccccc2OC[C@@H](O)CNC(C)(C)Cc2ccc(Oc3ncccc3C(N)=O)cc2)n1 [Example 15] | 70.9 ± 3.0%
16 | CC(C)(Cc1ccc(Oc2ccc(C(N)=O)cn2)cc1)NC[C@H](O)COc1ccccc1-c1cccs1 [Example 16] | 67.6 ± 4.7%
17 | CC(C)(Cc1ccc(Oc2ccc(C(N)=O)cn2)cc1)NC[C@H](O)COc1ccccc1-c1nccs1 [Example 17] | 62.9 ± 2.2%
18 | CC(C)(Cc1ccc(Oc2ccc(C(N)=O)cn2)cc1)NC[C@H](O)COc1ccccc1-c1ccno1 [Example 18] | 49.1 ± 2.9%
19 | CC(C)(Cc1ccc(Oc2ccc(C(N)=O)cn2)cc1)NC[C@H](O)COc1ccccc1-c1ccn[nH]1 [Example 19] | 31.3 n = 1%
20 | CC(C)(Cc1ccc(Oc2ccc(C(N)=O)cn2)cc1)NC[C@H](O)COc1ccccc1-c1cc2ccccc2[nH]1 [Example 20] | 30.4 ± 2.5%
21 | CC(C)(Cc1ccc(Oc2ncccc2C(N)=O)cc1)NC[C@H](O)COc1ccccc1-c1cc2ccccc2[nH]1 [Example 21] | 48.0 ± 2.0%
22 | CC(C)(Cc1ccc(Oc2ccc(C(N)=O)cn2)cc1)NC[C@H](O)COc1ccccc1N1CCCC1=O [Example 22] | 22.0 ± 5.3%
23 | CC(C)(Cc1ccc(Oc2ccc(C(N)=O)cn2)cc1)NC[C@H](O)COc1ccccc1N1CCOCC1.Cl.Cl [Example 23] | 29.9 ± 3.2%
24 | CC(C)(Cc1ccc(Oc2ccc(C(N)=O)cn2)cc1)NC[C@H](O)COc1ccccc1N1CCCCC1.Cl.Cl [Example 24] | 17.3 ± 3.2%
25 | CC(C)(Cc1ccc(Oc2ccc(C(N)=O)cn2)cc1)NC[C@H](O)COc1ccccc1N1CCNCC1.Cl.Cl.Cl [Example 25] | 13.7 ± 3.5%
26 | CC(C)(Cc1ccc(Oc2ccc(C(N)=O)cn2)cc1)NC[C@H](O)COc1ccccc1-c1nc2ccccc2o1 [Example 26] | 41.4 ± 6.6%
27 | CC(C)(Cc1ccc(Oc2ccc(C(N)=O)cn2)cc1)NC[C@H](O)COc1ccccc1-c1nc2ccccc2s1 [Example 27] | 20.8 ± 8.5%

Row | Structure (SMILES) | Emax (%) ± SEM
28 | CC1(C)COC(c2ccccc2OC[C@@H](O)CNC(C)(C)Cc2ccc(Oc3ccc(C(N)=O)cn3)cc2)=N1 [Example 28] | 83.4 ± 7.2%
29 | CC(C)(Cc1ccc(Oc2ccc(C(N)=O)cn2)cc1)NC[C@H](O)COc1ccccc1-n1cccc1.Cl [Example 29] | 48.4 ± 5.9%
30 | CC(C)(Cc1ccc(Oc2ccc(C(N)=O)cn2)cc1)NC[C@H](O)COc1ccccc1-c1nnco1 [Example 30] | 51.7 ± 2.7%
31 | CC(C)(Cc1ccc(Oc2ccc(C(N)=O)cn2)cc1)NC[C@H](O)COc1cc(Cl)ccc1-c1nnco1 [Example 31] | 12.1 n = 1%
32 | CC(C)(Cc1ccc(Oc2ccc(C(N)=O)cn2)cc1)NC[C@H](O)COc1ccccc1-c1ccon1.Cl [Example 32] | 54.2 ± 5.0%
33 | CC(C)(Cc1ccc(Oc2ccc(C(N)=O)cn2)cc1)NC[C@H](O)COc1ccccc1-c1ccnc(N)n1 [Example 33] | 26.2 ± 4.3%
34 | CC(C)(Cc1ccc(Oc2ccc(C(N)=O)cn2)cc1)NC[C@H](O)COc1cccc(-c2cc[nH]n2)c1 [Example 34] | <10%
35 | CC(C)(Cc1ccc(Oc2ccc(C(N)=O)cn2)cc1)NC[C@H](O)COc1cccc(-c2ccno2)c1 [Example 35] | 28.9 n = 1%
36 | CC(C)(Cc1ccc(Oc2ccc(C(N)=O)cn2)cc1)NC[C@H](O)COc1ccc(-c2ccno2)cc1 [Example 36] | 17.5 n = 1%
37 | CC(C)(Cc1ccc(Oc2ccc(C(N)=O)cn2)cc1)NC[C@H](O)COc1cccc(-c2ccnc(N)n2)c1 [Example 38] | 20.5 n = 1%
38 | CC(C)(Cc1ccc(Oc2ccc(C(N)=O)cn2)cc1)NC[C@H](O)COc1ccccc1C1=CC(=O)OC1.Cl [Example 41] | 33.5 ± 4.2%
39 | CC(C)(Cc1ccc(Oc2ccc(C(N)=O)cn2)cc1)NC[C@H](O)COc1ccccc1-c1nncs1.O=C(O)C(=O)O [Example 42] | 43.3 ± 2.7%
40 | CC(C)(Cc1ccc(Oc2ccc(C(N)=O)cn2)cc1)NC[C@H](O)COc1ccccc1-c1ccoc1.Cl [Example 43] | 61.9 ± 2.5%
41 | CC(C)(Cc1ccc(Oc2ccc(C(N)=O)cn2)cc1)NC[C@H](O)COc1ccccc1-c1csnn1.O=C(O)C(=O)O [Example 44] | 22.1 ± 3.3%
42 | CC(C)(Cc1ccc(Oc2ccc(C(N)=O)cn2)cc1)NC[C@H](O)COc1ccccc1-c1ncco1 [Example 45] | 66.5 ± 3.9%
43 | CC(C)(Cc1ccc(Oc2ccc(C(N)=O)cn2)cc1)NC[C@H](O)COc1ccccc1-c1cnco1.Cl [Example 46] | 64.7 ± 1.3%
44 | CC(C)(Cc1ccc(Oc2ccc(C(N)=O)cn2)cc1)NC[C@H](O)COc1ccccc1-n1cccn1.Cl [Example 47] | 35.5 ± 5.5%
45 | Cn1nccc1-c1ccccc1OC[C@@H](O)CNC(C)(C)Cc1ccc(Oc2ncccc2C#N)cc1 [Example 48] | 14.4 n = 1%
46 | Cn1ccc(-c2ccccc2OC[C@@H](O)CNC(C)(C)Cc2ccc(Oc3ccc(C#N)cn3)cc2)n1 [Example 49] | 59.1 n = 1%
47 | CC(C)(Cc1ccc(Oc2ncccc2C#N)cc1)NC[C@H](O)COc1ccccc1-c1cccs1 [Example 50] | 78.9 ± 2.5%
48 | CC(C)(Cc1ccc(Oc2ncccc2C#N)cc1)NC[C@H](O)COc1ccccc1-c1cccs1.Cl [Example 51] | 74.1 ± 3.3%
49 | CC(C)(Cc1ccc(Oc2ncccc2C#N)cc1)NC[C@H](O)COc1ccccc1-c1nccs1 [Example 52] | 70.1 ± 3.3%
50 | CC(C)(Cc1ccc(Oc2ncccc2C#N)cc1)NC[C@H](O)COc1ccccc1-c1ccno1 [Example 53] | 74.5 ± 12.5%
51 | CC(C)(Cc1ccc(Oc2ncccc2C#N)cc1)NC[C@H](O)COc1ccccc1-c1ccno1.Cl [Example 54] | 66.8 ± 6.8%
52 | CC(C)(Cc1ccc(Oc2ncccc2C#N)cc1)NC[C@H](O)COc1ccccc1-c1ccn[nH]1 [Example 55] | 37.5 n = 1%
53 | CC(C)(Cc1ccc(Oc2ncccc2C#N)cc1)NC[C@H](O)COc1ccccc1-c1cc2ccccc2[nH]1 [Example 56] | 30.1 ± 2.1%
54 | CC(C)(Cc1ccc(Oc2ncccc2C#N)cc1)NC[C@H](O)COc1ccccc1-c1ccncn1 [Example 57] | 41.8 ± 5.6%
